Assays:
[1] = tested on: normal NK cells expanded with K562-aAPC; test: percent inhibition of viability; higher = more inhibition; conditions: 72 h, IL-2 2.5 ng/mL
Procedure: (§1)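 Drug sensitivity and resistance testing on K562-aAPC-expanded normal NK cells: 5 concentrations (10-fold steps over a 10,000-fold range), 72 h at 37 °C, viability by CellTiter-Glo normalised to DMSO and benzethonium chloride controls; DSS from the fitted curve.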

DERL-7 (IL-2 2.5 ng/mL) [2] = test: drug sensitivity score (DSS) (DSS units); higher = more sensitive; extreme values may be limits of the assay; conditions: 72 h
[3] = tested on: normal primary NK cells, pool 3 (3 donors) (IL-2 2.5 ng/mL); test: as above; conditions: 72 h
KHYG-1 (IL-2 2.5 ng/mL) [4] = test: as above; conditions: 72 h
[5] = tested on: normal primary NK cells, pool 2 (3 donors) (IL-2 2.5 ng/mL); test: as above; conditions: 72 h
SNK-6 (IL-2 2.5 ng/mL) [6] = test: as above; conditions: 72 h
NK-YS (IL-2 2.5 ng/mL) [7] = test: as above; conditions: 72 h
[8] = tested on: normal primary NK cells, pool 1 (3 donors), resting (IL-2 0 ng/mL); test: as above; conditions: 72 h
KAI3 (IL-2 2.5 ng/mL) [9] = test: as above; conditions: 72 h
IMC-1 (IL-2 20 ng/mL) [10] = test: as above; conditions: 72 h
[11] = tested on: normal primary NK cells, pool 1 (3 donors) (IL-2 2.5 ng/mL); test: as above; conditions: 72 h
NK-92 (IL-2 2.5 ng/mL) [12] = test: as above; conditions: 72 h
YT (IL-2 2.5 ng/mL) [13] = test: as above; conditions: 72 h
NKL (IL-2 2.5 ng/mL) [14] = test: as above; conditions: 72 h
DERL-7 (IL-2 2.5 ng/mL) [15] = test: percent inhibition of viability; higher = more inhibition; conditions: 72 h
[16] = tested on: normal primary NK cells, pool 3 (3 donors) (IL-2 2.5 ng/mL); test: as above; conditions: 72 h
KHYG-1 (IL-2 2.5 ng/mL) [17] = test: as above; conditions: 72 h
[18] = tested on: normal primary NK cells, pool 2 (3 donors) (IL-2 2.5 ng/mL); test: as above; conditions: 72 h
SNK-6 (IL-2 2.5 ng/mL) [19] = test: as above; conditions: 72 h
NK-YS (IL-2 2.5 ng/mL) [20] = test: as above; conditions: 72 h
[21] = tested on: normal primary NK cells, pool 1 (3 donors), resting (IL-2 0 ng/mL); test: as above; conditions: 72 h
KAI3 (IL-2 2.5 ng/mL) [22] = test: as above; conditions: 72 h
IMC-1 (IL-2 20 ng/mL) [23] = test: as above; conditions: 72 h
[24] = tested on: normal primary NK cells, pool 1 (3 donors) (IL-2 2.5 ng/mL); test: as above; conditions: 72 h
NK-92 (IL-2 2.5 ng/mL) [25] = test: as above; conditions: 72 h
YT (IL-2 2.5 ng/mL) [26] = test: as above; conditions: 72 h
NKL (IL-2 2.5 ng/mL) [27] = test: as above; conditions: 72 h
[28] = tested on: normal NK cells expanded with K562-aAPC; test: drug sensitivity score (DSS) (DSS units); higher = more sensitive; extreme values may be limits of the assay; conditions: 72 h; IL-2 2.5 ng/mL
Procedure: as §1

COc1cc2ncnc(Oc3cccc(NC(=O)Nc4cc(C(C)(C)C(F)(F)F)on4)c3)c2cc1OC (max concentration tested 10000 nM)
percent inhibition of viability [%]
Conditions | 1 nM | 10 nM | 100 nM | 1000 nM | 10000 nM
DERL-7 (IL-2 2.5 ng/mL) [15] | -5.16 | 6.23 | -3 | 4.56 | -7.99
IMC-1 (IL-2 20 ng/mL) [23] | -1.62 | -0.53 | 0.44 | -4.34 | 6.15
KAI3 (IL-2 2.5 ng/mL) [22] | 0.98 | -5.32 | 2.9 | 6.52 | 22.6
KHYG-1 (IL-2 2.5 ng/mL) [17] | -4.24 | 2.96 | 2.93 | 12.8 | 22.6
NK-92 (IL-2 2.5 ng/mL) [25] | -0.01 | 2.35 | -2.76 | 14.8 | 28.1
NK-YS (IL-2 2.5 ng/mL) [20] | -5.12 | -3.89 | 6.64 | 10.2 | 22.5
NKL (IL-2 2.5 ng/mL) [27] | 4.1 | 2.39 | 15.8 | 41.7 | 42.7
SNK-6 (IL-2 2.5 ng/mL) [19] | -21 | -20.4 | -14.8 | -14.3 | -12
YT (IL-2 2.5 ng/mL) [26] | -6.09 | 0.07 | -0.35 | 27.3 | 17.8
[1] | -1.51 | -5.86 | -2.54 | 20.8 | 24.9
[16] | -10.2 | 8.96 | -2.46 | -8.5 | -3.67
[18] | -11.8 | 4.36 | -8.21 | -2.04 | -8.58
[21] | -30.4 | 6.49 | -14 | -6.06 | -6.31
[24] | -8.45 | 9.57 | -3.9 | 2.93 | 0.51

Conditions | drug sensitivity score
DERL-7 (IL-2 2.5 ng/mL) [2] | 0
IMC-1 (IL-2 20 ng/mL) [10] | 0
KAI3 (IL-2 2.5 ng/mL) [9] | 1.44
KHYG-1 (IL-2 2.5 ng/mL) [4] | 1.77
NK-92 (IL-2 2.5 ng/mL) [12] | 2.92
NK-YS (IL-2 2.5 ng/mL) [7] | 1.47
NKL (IL-2 2.5 ng/mL) [14] | 9.3
SNK-6 (IL-2 2.5 ng/mL) [6] | 0
YT (IL-2 2.5 ng/mL) [13] | 4.37
[3] | 0
[5] | 0
[8] | 0
[11] | 0
[28] | 3.18

CNCc1ccc(-c2[nH]c3cc(F)cc4c3c2CCNC4=O)cc1 [Rucaparib] (max concentration tested 10000 nM)
percent inhibition of viability [%]
Conditions | 1 nM | 10 nM | 100 nM | 1000 nM | 10000 nM
DERL-7 (IL-2 2.5 ng/mL) [15] | -9.87 | 10 | 4.56 | 3.4 | 22.7
IMC-1 (IL-2 20 ng/mL) [23] | -6.39 | -3.67 | -0.13 | 1.12 | 30.4
KAI3 (IL-2 2.5 ng/mL) [22] | -1.49 | 2.99 | 3.22 | 18.5 | 43.5
KHYG-1 (IL-2 2.5 ng/mL) [17] | -3.58 | -2.03 | -1.44 | 4.57 | 20
NK-92 (IL-2 2.5 ng/mL) [25] | -18.8 | 8.56 | -9.2 | 6.16 | 47.7
NK-YS (IL-2 2.5 ng/mL) [20] | -2.32 | -3.72 | 1.59 | 11.2 | 75.7
NKL (IL-2 2.5 ng/mL) [27] | -15.5 | 5.49 | 23.9 | 53.6 | 87.9
SNK-6 (IL-2 2.5 ng/mL) [19] | 7.29 | -11.5 | -2.3 | 1 | 31
YT (IL-2 2.5 ng/mL) [26] | -4.68 | -5.01 | -3.45 | 2.32 | 17.4
[1] | -4.01 | -1.44 | -1.55 | 6.35 | 21.8
[16] | -0.27 | 12.1 | 3.56 | -0.98 | 7.3
[18] | -2.83 | 5.08 | -1.77 | -1.32 | 4.05
[21] | 3.79 | 19.2 | 4.4 | 7.5 | -5.08
[24] | 4.59 | 15.4 | 12.4 | 3.34 | 18.9

Conditions | drug sensitivity score
DERL-7 (IL-2 2.5 ng/mL) [2] | 1.29
IMC-1 (IL-2 20 ng/mL) [10] | 1.47
KAI3 (IL-2 2.5 ng/mL) [9] | 4.23
KHYG-1 (IL-2 2.5 ng/mL) [4] | 1.18
NK-92 (IL-2 2.5 ng/mL) [12] | 3.52
NK-YS (IL-2 2.5 ng/mL) [7] | 6.07
NKL (IL-2 2.5 ng/mL) [14] | 13.3
SNK-6 (IL-2 2.5 ng/mL) [6] | 1.5
YT (IL-2 2.5 ng/mL) [13] | 0.68
[3] | 0
[5] | 0
[8] | 0
[11] | 0
[28] | 1.54

From the supplement of paper PMC5908809
